In BindingDB's records for doi:10.1111/j.1747-0285.2007.00617.x (Burnham Institute For Medical Research, 2008):

How the values were obtained:
[1] = target: 72 kDa type IV collagenase (Homo sapiens, UniProt P08253); experiment: MMP Inhibition Assay
Protocol: (§1) This assay was performed as outlined in the Anaspec MMP assay kit. The fluorescence peptide cleavage assay was performed in a 96-well plate in which each reaction mixture contained 5-FAM / QXL520 and activated MMP-2 or MMP-9 in assay buffer, and the screening compounds.

[2] = target: Matrix metalloproteinase-9 (Homo sapiens, UniProt P14780); experiment: MMP Inhibition Assay
Sequence of Matrix metalloproteinase-9 (P14780 whole entry): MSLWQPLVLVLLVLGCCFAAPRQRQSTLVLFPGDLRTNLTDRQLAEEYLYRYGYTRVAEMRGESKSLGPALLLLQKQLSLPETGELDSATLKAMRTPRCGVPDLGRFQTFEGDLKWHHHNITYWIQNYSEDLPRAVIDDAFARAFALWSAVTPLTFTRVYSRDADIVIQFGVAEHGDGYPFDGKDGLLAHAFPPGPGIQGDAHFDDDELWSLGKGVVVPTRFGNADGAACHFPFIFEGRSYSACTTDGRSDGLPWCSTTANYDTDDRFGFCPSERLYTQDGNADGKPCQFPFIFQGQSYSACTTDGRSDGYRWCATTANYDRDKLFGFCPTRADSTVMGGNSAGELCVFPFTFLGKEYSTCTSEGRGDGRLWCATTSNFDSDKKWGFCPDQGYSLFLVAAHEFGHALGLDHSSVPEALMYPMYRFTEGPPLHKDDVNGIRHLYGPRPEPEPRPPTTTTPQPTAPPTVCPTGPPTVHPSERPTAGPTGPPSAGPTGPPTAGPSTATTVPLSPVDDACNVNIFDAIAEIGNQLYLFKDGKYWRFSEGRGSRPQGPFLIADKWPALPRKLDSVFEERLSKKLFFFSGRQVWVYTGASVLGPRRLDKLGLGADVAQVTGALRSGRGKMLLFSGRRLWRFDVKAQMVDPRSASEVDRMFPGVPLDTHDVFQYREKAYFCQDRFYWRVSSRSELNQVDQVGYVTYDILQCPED
Protocol: as §1

Sequence of 72 kDa type IV collagenase (P08253 whole entry): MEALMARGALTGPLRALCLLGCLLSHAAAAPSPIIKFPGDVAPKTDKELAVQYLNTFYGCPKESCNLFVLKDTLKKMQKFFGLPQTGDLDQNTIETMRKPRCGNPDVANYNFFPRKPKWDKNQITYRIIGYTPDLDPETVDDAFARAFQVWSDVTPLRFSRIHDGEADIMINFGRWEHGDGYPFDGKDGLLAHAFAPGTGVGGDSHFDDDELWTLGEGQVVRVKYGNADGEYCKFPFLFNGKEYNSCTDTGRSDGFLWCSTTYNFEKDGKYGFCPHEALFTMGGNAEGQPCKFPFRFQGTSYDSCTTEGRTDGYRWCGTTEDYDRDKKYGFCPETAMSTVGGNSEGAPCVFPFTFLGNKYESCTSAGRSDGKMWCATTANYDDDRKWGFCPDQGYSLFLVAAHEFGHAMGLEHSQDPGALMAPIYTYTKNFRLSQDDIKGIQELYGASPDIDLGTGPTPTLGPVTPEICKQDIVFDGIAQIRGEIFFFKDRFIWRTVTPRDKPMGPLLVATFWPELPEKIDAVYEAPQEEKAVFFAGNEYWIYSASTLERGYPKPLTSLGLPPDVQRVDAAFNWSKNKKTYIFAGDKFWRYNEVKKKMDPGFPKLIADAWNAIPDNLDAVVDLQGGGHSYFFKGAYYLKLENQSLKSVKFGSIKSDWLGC

SMILES | IC50 [1] | IC50 [2]
O=C(O)CN1C(=O)/C(=C/c2cc(-c3ccccc3)on2)SC1=S [2-[(5Z)-4-oxo-5-[(5-phenyl-1,2-oxazol-3-yl)methylidene]-2-sulfanylidene-1,3-thiazolidin-3-yl]acetic acid] | > 100 µM | 50 µM
Cc1nc(/C=C2\SC(=S)N(CC(=O)O)C2=O)c(C)o1 [2-[(5Z)-5-[(2,5-dimethyl-1,3-oxazol-4-yl)methylidene]-4-oxo-2-sulfanylidene-1,3-thiazolidin-3-yl]acetic acid] | > 100 µM | > 100 µM
Cc1nc(-c2ccccc2)c(/C=C2\SC(=S)N(CC(=O)O)C2=O)s1 [2-[(5Z)-5-[(2-methyl-4-phenyl-1,3-thiazol-5-yl)methylidene]-4-oxo-2-sulfanylidene-1,3-thiazolidin-3-yl]acetic acid] | > 100 µM | > 100 µM
CC(C)(C)OC(=O)N1CCC(c2nc(/C=C3\SC(=S)N(CC(=O)O)C3=O)cs2)CC1 [2-[(5Z)-5-[(2-{1-[(tert-butoxy)carbonyl]piperidin-4-yl}-1,3-thiazol-4-yl)methylidene]-4-oxo-2-sulfanylidene-1,3-thiazolidin-3-yl]acetic acid] | > 100 µM | > 100 µM
O=C(O)CN1C(=O)/C(=C/c2c[nH]c3ccc(Br)cc23)SC1=S [2-[(5Z)-5-[(5-bromo-1H-indol-3-yl)methylidene]-4-oxo-2-sulfanylidene-1,3-thiazolidin-3-yl]acetic acid] | – | > 100 µM
O=C(O)CN1C(=O)/C(=C/c2cc(-c3ccc(Br)cc3)on2)SC1=S [2-[(5Z)-5-{[5-(4-bromophenyl)-1,2-oxazol-3-yl]methylidene}-4-oxo-2-sulfanylidene-1,3-thiazolidin-3-yl]acetic acid] | > 100 µM | 27.4 µM
O=C(O)CN1C(=O)/C(=C/c2cc(-c3ccc(Cl)cc3)on2)SC1=S [2-[(5Z)-5-{[5-(4-chlorophenyl)-1,2-oxazol-3-yl]methylidene}-4-oxo-2-sulfanylidene-1,3-thiazolidin-3-yl]acetic acid] | 19.2 µM | > 100 µM
O=C(O)CN1C(=O)/C(=C/c2cc(-c3ccc(F)cc3)on2)SC1=S [2-[(5Z)-5-{[5-(4-fluorophenyl)-1,2-oxazol-3-yl]methylidene}-4-oxo-2-sulfanylidene-1,3-thiazolidin-3-yl]acetic acid] | 10 µM | > 100 µM
COc1ccc(-c2cc(/C=C3\SC(=S)N(CC(=O)O)C3=O)no2)cc1 [2-[(5Z)-5-{[5-(4-methoxyphenyl)-1,2-oxazol-3-yl]methylidene}-4-oxo-2-sulfanylidene-1,3-thiazolidin-3-yl]acetic acid] | 6.62 µM | > 100 µM
Cc1ccc(-c2cc(/C=C3\SC(=S)N(CC(=O)O)C3=O)no2)cc1 [2-[(5Z)-5-{[5-(4-methylphenyl)-1,2-oxazol-3-yl]methylidene}-4-oxo-2-sulfanylidene-1,3-thiazolidin-3-yl]acetic acid] | < 10 µM | > 100 µM
O=C(O)CN1C(=O)/C(=C/c2cc(-c3ccco3)on2)SC1=S [2-[(5Z)-5-{[5-(furan-2-yl)-1,2-oxazol-3-yl]methylidene}-4-oxo-2-sulfanylidene-1,3-thiazolidin-3-yl]acetic acid] | – | > 100 µM
